Measured values published in PubChem BioAssay AID2754 (The Scripps Research Institute Molecular Screening Center, 2010).
The source made the active and inactive calls. How the calls were made is not given here.

Target: VIM-2 metallo-beta-lactamase (Pseudomonas aeruginosa) (UniProt Q932Y6)
Assay: inhibition of VIM-2 substrate hydrolysis – biochemical, epi-absorbance, common IMP-1/VIM-2 hits, dose response (AID 2754)
Conditions: purified VIM-2 enzyme

Compound `CN1CCN(C2=CC3=CC(=C(C#N)C#N)CCC3CC2)CC1` (stereo unspecified) has an IC50 of 3 µM.

Work on `O=c1ccc2c(-c3ccccc3)c3ccc(O)cc3oc-2c1` yielded an IC50 of 0.374 µM.

`Cc1nn(-c2ccccc2)c(Cl)c1/C=C(\CC(=O)O)c1nc2ccccc2s1` gave an IC50 of 9.26 µM.

For `CCN(CC)c1ccc2cc(C(=O)NCc3ccc(F)cc3)c(=N)oc2c1`, the IC50 was > 59.6 µM (inactive).

In the case of `CC(=O)Oc1ccc2c(c1)Oc1cc(OC(C)=O)ccc1C21OC(=O)c2ccccc21`, the IC50 is reported as “inactive”.

For `CCOc1cc2c(cc1/C=C/c1noc(C)c1[N+](=O)[O-])OC(C)C2` (stereo unspecified), the IC50 was > 59.6 µM (inactive).

In the case of `COc1cc(/C=C2/SC(=S)N(Cc3ccccc3)C2=O)cc(OC)c1O`, the IC50 is reported as > 59.6 µM (inactive).

With `CCN1/C(=C/C=C/c2oc3ccc4ccccc4c3[n+]2CC)Oc2ccc3ccccc3c21` the IC50 was > 59.6 µM (inactive).

With `O=C(Nc1ccc2oc(-c3ccccc3F)nc2c1)c1ccc([N+](=O)[O-])o1` the IC50 was > 59.6 µM (inactive).

With `CC(C)(C)c1ccc(-c2c(C(=O)O)c(C(=O)O)c3n2CSC3)cc1` the IC50 was “inactive”.

`Nc1ccc(-c2c3ccc(=O)cc-3oc3cc(O)ccc23)cc1C(=O)O` showed an IC50 of 4.47 µM.

Work on `N#CC(C#N)=C1C=C2C=C(N3CCCCCC3)CCC2CC1` (stereo unspecified) yielded an IC50 of 2.51 µM.

`CCOc1ccc(-c2cc(C(=O)NCCCn3ccnc3)c3cc(Br)ccc3n2)cc1` was tested, and the IC50 was > 59.6 µM (inactive).

`O=C1c2ccccc2-c2onc3ccc(NCCCn4ccnc4)c1c23` showed an IC50 of 1.72 µM.

`CCN(CC)c1ccc2cc(C=O)c(=O)oc2c1` was tested, and the IC50 was “inactive”.

In the case of `O=P(O)(O)c1cc(-c2ccccc2)oc1-c1ccccc1`, the IC50 is reported as “inactive”.

`CCN(CC)C1=CC2=CC(=C(C#N)C#N)CCC2CC1` (stereo unspecified) was tested, and the IC50 was 2.4 µM.

In the case of `CC(C)C(CCN1C(=O)c2ccccc2C1=O)c1ccco1` (stereo unspecified), the IC50 is reported as “inactive”.

`Nc1cccc(N2C(=O)c3cccc4c(N)ccc(c34)C2=O)c1` was tested, and the IC50 was “inactive”.

In the case of `CCCCn1c(=O)[nH]c2nc3cc(N)ccc3nc2c1=O`, the IC50 is reported as “inactive”.

In the case of `COc1ccc(/C=C2\CCCc3c2nc2ccccc2c3C(=O)O)cc1OC`, the IC50 is reported as “inactive”.

Work on `CCc1cc(=O)oc2cc(C)c(CN3CCCC3)c(O)c12` yielded an IC50 of 6.96 µM.

With `Cc1cccc(N2C(=O)c3cccc4c(N)ccc(c34)C2=O)c1` the IC50 was “inactive”.

In the case of `N=C1/C(=C\c2coc3ccccc3c2=O)C(=O)N=C2SC=CN12`, the IC50 is reported as “inactive”.

Compound `N#CC(C#N)=C1C=C2C=C(N3CCOCC3)CCC2CC1` (stereo unspecified) has an IC50 of 2.74 µM.

Work on `CCN(CC)c1ccc(/C=C/C(=O)c2ccc(Br)cc2)cc1` yielded an IC50 of 8.45 µM.

For `CCN(CC)c1ccc2cc(-c3nc4ccccc4[nH]3)c(=O)oc2c1`, the IC50 was 2.73 µM.

With `O=C(CCN1C(=O)/C(=C/c2ccc(Cl)cc2)SC1=S)NCCCn1ccnc1` the IC50 was > 59.6 µM (inactive).

`O/C=c1\ccc2cccc3nc(C(F)(F)F)nc1c23` gave an IC50 of 8.76 µM.

With `CC(C)n1cc(/C=C/c2cc[n+](C)cc2)c2ccccc21` the IC50 was “inactive”.

`CCOC(=O)C1CCCN(c2ccc([N+](=O)[O-])c3nonc23)C1` (stereo unspecified) was tested, and the IC50 was “inactive”.

In the case of `CCOC(=O)c1c2c3c(cccc3n(C)c1=O)C(=O)c1ccccc1-2`, the IC50 is reported as “inactive”.

For `Cc1ccc(Cn2c(C(C)Nc3nc(-c4ccc(C)cc4)cs3)nc3cc(Cl)c(Cl)cc32)cc1` (stereo unspecified), the IC50 was “inactive”.

`CC(=O)Nc1ccc(N2C(=O)c3cccc4c(O)ccc(c34)C2=O)cc1` was tested, and the IC50 was “inactive”.

`O=C1/C(=C\c2cc(Cl)c(O)c(Cl)c2)SC(=S)N1Cc1ccccc1` was tested, and the IC50 was “inactive”.

For `O=C1CCN2C=Nc3cccc4ccc1c2c34`, the IC50 was 9.22 µM.

`COc1ccccc1N1N=C(c2ccc([N+](=O)[O-])cc2)CC1c1ccccc1` (stereo unspecified) was tested, and the IC50 was > 59.6 µM (inactive).

`Cc1nn(C)c(C)c1N1C(=O)c2cccc3c(N)ccc(c23)C1=O` showed an IC50 of 8.99 µM.

`CCCCN(C)C1=CC2=CC(=C(C#N)C#N)CCC2CC1` (stereo unspecified) showed an IC50 of 4.07 µM.

In the case of `CNc1ccc2c3c(cccc13)C(=O)N(C)C2=O`, the IC50 is reported as 3.06 µM.

For `COc1cc(OC)c(-c2c3cc(O)c(=O)cc-3oc3cc(O)c(O)cc23)cc1OC`, the IC50 was 5.11 µM.

In the case of `COc1ccc2c(Cl)c(C(=O)NCCCn3ccnc3)sc2c1Cl`, the IC50 is reported as > 59.6 µM (inactive).

For `COCCCn1c(=NC(=O)c2ccccc2)c(C#N)cc2c(=O)n3cccc(C)c3nc21`, the IC50 was > 59.6 µM (inactive).

In the case of `CN(/N=C/c1ccc(-c2ccc([N+](=O)[O-])cc2)o1)c1ccccc1`, the IC50 is reported as > 59.6 µM (inactive).

In the case of `CN1C(=O)/C(=C\c2ccc(N(C)C)cc2)OC1=S`, the IC50 is reported as > 59.6 µM (inactive).

`CCCCC(Sc1nc(N)c(NC(=O)c2ccco2)c(=O)[nH]1)C(=O)O` (stereo unspecified) was tested, and the IC50 was > 59.6 µM (inactive).

`COc1ccc(/C=C2/SC(c3ccc(C)cc3)=NC2=O)cc1OC` was tested, and the IC50 was > 59.6 µM (inactive).

Work on `N#CC(C#N)=C1C=C2C=C(N3CCCCC3)CCC2CC1` (stereo unspecified) yielded an IC50 of 2.33 µM.

In the case of `Cn1cc(/C=C(\C(=O)O)C(C(=O)O)=C2CCCCC2)c2ccccc21`, the IC50 is reported as “inactive”.

For `CCCCCCn1c(=O)[nH]c2nc3cc(N)ccc3nc2c1=O`, the IC50 was “inactive”.

For `CCC(=C/c1sc2ccc3ccccc3c2[n+]1C)/C=C1\Sc2ccc3ccccc3c2N1C`, the IC50 was > 59.6 µM (inactive).

With `CCN1CCN(C2=CC3=CC(=C(C#N)C#N)CCC3CC2)CC1` (stereo unspecified) the IC50 was 3.7 µM.

For `CCCN1C(=O)c2cccc3c(N4CCCCC4)ccc(c23)C1=O`, the IC50 was > 59.6 µM (inactive).

For `CCOc1ccc(/C=C2\CCCc3c2nc2ccccc2c3C(=O)O)cc1OC`, the IC50 was “inactive”.

`COCCCNc1c2c3c(cccc3[nH]c1=O)C(=O)c1ccccc1-2` showed an IC50 of 1.84 µM.

`COC(=O)c1sccc1NC(=O)c1ccc(C#N)cc1` was tested, and the IC50 was > 59.6 µM (inactive).

For `CCN(CC)c1ccc2c(-c3ccc(S(=O)(=O)O)cc3S(=O)(=O)[O-])c3ccc(=[N+](CC)CC)cc-3oc2c1`, the IC50 was > 59.6 µM (inactive).

`COc1ccc(-c2cc(=O)oc3c(C)c(OCC(=O)NCCCn4ccnc4)ccc23)cc1` was tested, and the IC50 was “inactive”.

`Cc1n[nH]c(C)c1N1C(=O)c2cccc3c(N4CCCCCC4)ccc(c23)C1=O` was tested, and the IC50 was “inactive”.

For `O=C1c2cccc3c(O)ccc(c23)C(=O)N1c1ccc(Cl)cc1`, the IC50 was “inactive”.

With `COc1ccccc1-c1csc(-n2ncc(C#N)c2N)n1` the IC50 was > 59.6 µM (inactive).

`Nc1ccc2c3c(cccc13)C(=O)N(c1ccccc1)C2=O` was tested, and the IC50 was “inactive”.

In the case of `O=[N+]([O-])c1ccc(N2CCCCCC2)c2nonc12`, the IC50 is reported as “inactive”.

`COc1ccc(-c2occ(C(=O)O)c2C(=O)O)cc1` was tested, and the IC50 was “inactive”.

In the case of `Cc1ccc2[nH]cc(/C=C/c3cc[n+](C)cc3)c2c1`, the IC50 is reported as “inactive”.

In the case of `CCn1c(=S)sc2c(=O)n(CC(=O)Nc3ccccc3C(F)(F)F)c(C)nc21`, the IC50 is reported as > 59.6 µM (inactive).

`CN1C(=O)c2cccc3c(N)ccc(c23)C1=O` was tested, and the IC50 was 7.17 µM.

`CN(C)/C=C1\C=C2C(=O)c3ccccc3N2C1=O` gave an IC50 of 0.894 µM.

In the case of `O=c1cc(C(F)(F)F)c2cc3c4c(c2o1)CCCN4CCC3`, the IC50 is reported as “inactive”.

In the case of `O=C1c2cccc3c(O)ccc(c23)C(=O)N1Cc1ccco1`, the IC50 is reported as “inactive”.

`O=C(Nc1ccc(C(F)(F)F)cc1)c1ccc(NC(=O)C2CCCO2)cc1` (stereo unspecified) was tested, and the IC50 was > 59.6 µM (inactive).
